Experimental data published in the NIST ThermoML archive (doi:10.1016/j.jct.2018.10.015).

Experiment: xn = mol fraction of the nth substance listed
Conditions: 101.3 kPa, Liquid; for viscosity: Concentric cylinders viscometry; for mass density: Vibrating tube method

CCCCn1cc[n+](C)c1C.O=S(=O)([N-]S(=O)(=O)C(F)(F)F)C(F)(F)F + COC(=O)OC
Conditions	mass density, 293.15 K [kg/m3]	mass density, 298.15 K [kg/m3]	mass density, 303.15 K [kg/m3]	mass density, 308.15 K [kg/m3]	viscosity, 293.15 K [mPa·s]	viscosity, 298.15 K [mPa·s]	viscosity, 303.15 K [mPa·s]	viscosity, 308.15 K [mPa·s]
x1 = 0.0976	1176	1170.1	1164.2	1158.2	1.828	1.686	1.561	1.445
x1 = 0.1935	1242.1	1236.6	1231.1	1225.6	3.518	3.172	2.876	2.623
x1 = 0.299	1291.6	1286.4	1281.2	1275.9	6.864	6.035	5.352	4.784
x1 = 0.4011	1325.8	1320.8	1315.7	1310.7	12.11	10.38	8.997	7.873
x1 = 0.4954	1350.1	1345.2	1340.2	1335.3	19.5	16.34	13.88	11.92
x1 = 0.5974	1371	1366.2	1361.4	1356.5	31.06	25.45	21.16	17.83
x1 = 0.6988	1387.8	1383	1378.3	1373.5	47.37	38.01	31.01	25.68
x1 = 0.7987	1401.5	1396.8	1392.1	1387.4	68.9	54.23	43.5	35.46
x1 = 0.9	1413.2	1408.5	1403.9	1399.2	97.5	75.54	59.63	47.91
x1 = 1	1423.1	1418.5	1413.9	1409.3	133.6	101.82	79.23	62.74
